Data reported in patent US10202376B2, “Heterocyclic compound” (Takeda Pharmaceutical Company Limited, priority 2014, dated 2019).

Tests used:
[1] = target: NMDA receptor containing the NR2B subunit (Rattus norvegicus, UniProt P35439+Q00960); details: rodents; cited from earlier work
NMDA receptor [2] = details: in vivo; cited from earlier work
[3] = target: T1, Human GRIN1 and human GRIN2B expressing HEK293 cells (Homo sapiens, UniProt Q13224); experiment: NR2B Ca2+ flux assay; type: cell-based; details: 10 μM test compound, glutamic acid/glycine stimulated Fluo-4 fluorescence, FLIPR, read-out: inhibitory rate (@10 μM)
T1 construct: host or cells: HEK293
Method: Experimental Example 1 NR2B Ca^2+ Flux Assay
Human GRIN1 and human GRIN2B expressing HEK293 cells were purchased from ChanTest. The cells were cultured in a DMEM/F-12 (COSMO BIO, 10-092-CM) medium added with 10% FBS (fetal bovine serum, AusGene), 100 units/mL penicillin, 100 μg/mL streptomycin, 500 μg/mL neomycin, 100 μg/mL Zeocin, 5 μg/mL Blasticidin at 37° C., 5% CO2. The cells were detached from flask with trypsin the day before the assay, suspended in a seeding medium (DMEM (Invitrogen, 31053) added with 10% FBS, 100 units/mL penicillin, 100 μg/mL streptomycin) at 8×10^5 cells/mL, seeded by 25 μL per well in a 384-well plate (Falcon, 356663) at 20000 cells/well, and cultured overnight in an incubator. On the day of the assay, tetracycline (Wako Pure Chemical Industries, Ltd., 209-16561) was diluted with the seeding medium at 2 μg/mL, added at […] to the plate seeded with the cells, and cultured for 2 hr in an incubator. Thereafter, the medium was removed, and the cells were washed with 50 μL/well assay buffer (137 mM NaCl, 4 mM KCl, 1.8 mM CaCl2, 10 mM HEPES (pH 7.2), 10 mM Glucose, 0.1% BSA). Then, a loading buffer (assay buffer added with 2.5 uM Fluo-4AM, 2 mM Amaranth, 1 mM Tartrazine) was added at 25 μL/well, and loading was performed in the incubator for 30 min, and at room temperature for 15 min. A test compound (25 μL) was added, and the cells were stood for 15 min at room temperature. Using FLIPR (Molecular Devices), 25 μL of an assay buffer containing […], 30 μM glycine was added, and the fluorescence signal was measured every 3 seconds for 5 min. The inhibitory activity was calculated as a relative activity value that inhibits 100% of the cumulative value of the fluorescence value of a well added with a buffer free of glutamic acid, glycine, relative to the cumulative value of the fluorescence value of each well.

[4] = target: T2, NMDA receptor containing the NR2B subunit (Homo sapiens, UniProt Q05586+Q13224); details: continuous intravenous administration; cited from earlier work
NMDA receptor [5] = details: continuous intravenous administration; cited from earlier work
[6] = target: T2, NMDA receptor containing the NR2B subunit; details: in vivo; cited from earlier work

T1 sequence (Q13224 27-1484, other chains not shown): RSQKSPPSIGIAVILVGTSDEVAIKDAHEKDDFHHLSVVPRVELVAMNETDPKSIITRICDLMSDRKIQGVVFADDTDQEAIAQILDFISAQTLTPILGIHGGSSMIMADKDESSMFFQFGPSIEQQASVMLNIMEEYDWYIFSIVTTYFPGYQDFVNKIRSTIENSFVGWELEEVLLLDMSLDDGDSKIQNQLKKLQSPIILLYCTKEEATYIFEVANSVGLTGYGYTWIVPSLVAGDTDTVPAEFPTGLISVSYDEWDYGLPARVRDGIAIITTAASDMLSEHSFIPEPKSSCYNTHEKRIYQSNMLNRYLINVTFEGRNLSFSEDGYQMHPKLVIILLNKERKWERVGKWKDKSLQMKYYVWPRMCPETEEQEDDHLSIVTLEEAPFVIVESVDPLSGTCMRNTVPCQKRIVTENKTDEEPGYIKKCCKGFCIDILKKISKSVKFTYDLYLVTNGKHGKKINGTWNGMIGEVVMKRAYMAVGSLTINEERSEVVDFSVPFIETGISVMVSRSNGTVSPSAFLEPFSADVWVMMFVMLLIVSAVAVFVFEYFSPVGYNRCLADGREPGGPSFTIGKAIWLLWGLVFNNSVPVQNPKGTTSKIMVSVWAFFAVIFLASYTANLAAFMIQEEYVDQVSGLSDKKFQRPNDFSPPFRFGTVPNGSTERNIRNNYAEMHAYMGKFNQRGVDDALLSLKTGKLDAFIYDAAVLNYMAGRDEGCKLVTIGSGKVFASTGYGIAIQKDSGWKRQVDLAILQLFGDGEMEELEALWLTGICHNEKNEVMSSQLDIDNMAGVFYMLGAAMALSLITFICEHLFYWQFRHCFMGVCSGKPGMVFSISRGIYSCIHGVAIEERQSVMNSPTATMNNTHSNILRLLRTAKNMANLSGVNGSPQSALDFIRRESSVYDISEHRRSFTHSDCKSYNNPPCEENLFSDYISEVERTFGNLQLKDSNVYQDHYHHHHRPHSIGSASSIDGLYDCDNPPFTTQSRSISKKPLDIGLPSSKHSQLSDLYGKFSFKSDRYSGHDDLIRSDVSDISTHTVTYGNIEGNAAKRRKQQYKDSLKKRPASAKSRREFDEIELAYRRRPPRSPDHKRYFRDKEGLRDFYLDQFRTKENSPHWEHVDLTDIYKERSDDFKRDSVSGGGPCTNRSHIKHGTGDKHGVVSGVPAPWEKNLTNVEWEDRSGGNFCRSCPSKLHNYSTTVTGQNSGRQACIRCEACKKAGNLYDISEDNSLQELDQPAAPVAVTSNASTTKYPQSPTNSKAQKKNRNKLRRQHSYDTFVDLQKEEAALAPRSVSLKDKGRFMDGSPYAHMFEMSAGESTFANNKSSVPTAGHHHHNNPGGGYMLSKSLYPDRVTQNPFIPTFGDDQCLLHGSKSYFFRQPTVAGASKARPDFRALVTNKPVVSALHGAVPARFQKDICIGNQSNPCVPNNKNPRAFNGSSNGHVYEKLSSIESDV
T2 sequence (Q13224 27-1484, other chains not shown): as above
Chain of NMDA receptor containing the NR2B subunit (Rattus norvegicus, UniProt P35439+Q00960) (Q00960 27-1482, other chains not shown): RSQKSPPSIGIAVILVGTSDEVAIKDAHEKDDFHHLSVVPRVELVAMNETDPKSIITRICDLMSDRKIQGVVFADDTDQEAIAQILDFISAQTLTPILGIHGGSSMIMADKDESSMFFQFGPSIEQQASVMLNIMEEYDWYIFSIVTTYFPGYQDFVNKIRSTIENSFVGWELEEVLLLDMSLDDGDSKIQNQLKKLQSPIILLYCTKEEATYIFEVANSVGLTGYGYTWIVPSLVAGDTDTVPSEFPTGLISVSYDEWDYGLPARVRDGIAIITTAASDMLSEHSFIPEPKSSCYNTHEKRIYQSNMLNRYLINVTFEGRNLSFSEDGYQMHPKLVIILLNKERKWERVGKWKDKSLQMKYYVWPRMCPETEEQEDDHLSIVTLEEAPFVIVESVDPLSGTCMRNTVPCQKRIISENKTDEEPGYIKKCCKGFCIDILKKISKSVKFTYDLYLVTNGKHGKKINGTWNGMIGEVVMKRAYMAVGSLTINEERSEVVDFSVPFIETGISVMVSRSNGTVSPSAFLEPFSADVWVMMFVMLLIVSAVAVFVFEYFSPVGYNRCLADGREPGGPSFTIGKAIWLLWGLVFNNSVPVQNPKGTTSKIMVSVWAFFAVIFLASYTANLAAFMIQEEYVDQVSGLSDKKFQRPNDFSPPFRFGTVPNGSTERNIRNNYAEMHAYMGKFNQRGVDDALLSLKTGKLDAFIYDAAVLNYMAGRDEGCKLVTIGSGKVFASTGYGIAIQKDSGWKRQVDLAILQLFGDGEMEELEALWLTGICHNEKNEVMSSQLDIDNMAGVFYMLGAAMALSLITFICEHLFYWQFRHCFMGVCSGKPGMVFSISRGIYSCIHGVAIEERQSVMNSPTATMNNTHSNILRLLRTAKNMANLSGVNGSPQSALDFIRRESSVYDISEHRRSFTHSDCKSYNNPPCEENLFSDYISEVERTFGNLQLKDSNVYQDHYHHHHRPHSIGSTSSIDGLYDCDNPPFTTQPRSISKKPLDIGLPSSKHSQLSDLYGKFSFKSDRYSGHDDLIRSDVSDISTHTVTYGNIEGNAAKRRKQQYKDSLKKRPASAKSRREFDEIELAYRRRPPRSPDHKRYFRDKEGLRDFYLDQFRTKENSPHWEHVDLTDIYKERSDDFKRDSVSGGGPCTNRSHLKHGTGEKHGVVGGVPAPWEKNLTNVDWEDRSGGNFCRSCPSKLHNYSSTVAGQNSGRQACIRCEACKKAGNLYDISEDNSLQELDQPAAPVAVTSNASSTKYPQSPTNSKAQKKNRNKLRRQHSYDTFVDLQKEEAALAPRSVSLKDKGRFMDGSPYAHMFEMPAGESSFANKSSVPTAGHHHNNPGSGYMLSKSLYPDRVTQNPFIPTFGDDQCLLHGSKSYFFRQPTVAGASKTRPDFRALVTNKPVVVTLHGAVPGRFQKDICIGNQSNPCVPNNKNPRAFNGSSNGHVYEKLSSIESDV

| Compound | inhibition at 10 µM [3] | also measured |
| --- | --- | --- |
| C[C@@H](CN1CCC(Cc2ccccc2)CC1)[C@@H](O)c1ccc(O)cc1 [Ro25-6981] |  | number of occurrence and depth of cortical spreading depression [1]: suppress the number of occurrence and the depth of cortical spreading depression |
| CC12CC3CC(C)(C1)CC(N)(C3)C2 [memantine] |  | peripheral symptoms of dementia (NMDA receptor [2]): partially improves peripheral symptoms of dementia |
| O=C(Cc1cccc2nccn12)Nc1ccc(C(F)(F)F)cc1F [Example 43, N-(2-fluoro-4-(trifluoromethyl)phenyl)-2-(imidazo[1,2-a]pyridin-5-yl)acetamide] | 90% |  |
| Cc1cn2c(CC(=O)Nc3ccc(C(F)(F)F)cc3)cccc2n1 [Example 23, 2-(2-methylimidazo[1,2-a]pyridin-5-yl)-N-(4-(trifluoromethyl)phenyl)-acetamide] | 81% |  |
| O=C(Cc1cccc2nccn12)Nc1ccc(I)cc1 [Example 16, 2-(imidazo[1,2-a]pyridin-5-yl)-N-(4-iodophenyl)acetamide] | 91% |  |
| O=C(Cc1cccc2nccn12)Nc1ccc(OC(F)(F)F)nc1 [Example 63, 2-(imidazo[1,2-a]pyridin-5-yl)-N-(6-(trifluoromethoxy)-pyridin-3-yl)acetamide] | 85% |  |
| O=C(Cc1cccc2nccn12)Nc1ccc(OCC(F)(F)F)cc1 [Example 38, 2-(imidazo[1,2-a]pyridin-5-yl)-N-(4-(2,2,2-trifluoroethoxy)phenyl)-acetamide] | 82% |  |
| O=C(Cc1cccc2nccn12)Nc1ccc(F)cc1F [Example 27, N-(2,4-difluorophenyl)-2-(imidazo[1,2-a]pyridin-5-yl)acetamide] | 66% |  |
| O=C(Cc1cccc2nccn12)Nc1ccc(F)c(F)c1 [Example 29, N-(3,4-difluorophenyl)-2-(imidazo[1,2-a]pyridin-5-yl)acetamide] | 88% |  |
| O=C(Cc1cccc2nccn12)Nc1ccc(F)c(C(F)F)c1 [Example 21, N-(3-(difluoromethyl)-4-fluorophenyl)-2-(imidazo[1,2-a]pyridin-5-yl)acetamide] | 56% |  |
| CCN(C(=O)Cc1cccc2nccn12)c1ccc(OC(F)(F)F)cc1 [Example 59, N-ethyl-2-(imidazo[1,2-a]pyridin-5-yl)-N-(4-(trifluoromethoxy)-phenyl)acetamide] | 57% |  |
| O=C(Cc1cccc2nccn12)Nc1ccc(Br)c(F)c1 [Example 83, N-(4-bromo-3-fluorophenyl)-2-(imidazo[1,2-a]pyridin-5-yl)acetamide] | 93% |  |
| O=C(Cc1cccc2nccn12)Nc1ccc(I)c(F)c1 [Example 82, N-(3-fluoro-4-iodophenyl)-2-(imidazo[1,2-a]pyridin-5-yl)acetamide] | 94% |  |
| Cc1ccc2nccn2c1CC(=O)Nc1ccc(C(F)(F)F)cc1 [Example 87, 2-(6-methylimidazo[1,2-a]pyridin-5-yl)-N-(4-(trifluoromethyl)phenyl)-acetamide] | 93% |  |
| O=C(Cc1cccc2nccn12)Nc1ccc(C(F)(F)F)cc1Cl [Example 37, N-(2-chloro-4-(trifluoromethyl)phenyl)-2-(imidazo[1,2-a]pyridin-5-yl)acetamide] | 81% |  |
| O=C(Cc1cc(F)cc2nccn12)Nc1ccc(C(F)(F)F)cc1 [Example 90, 2-(7-fluoroimidazo[1,2-a]pyridin-5-yl)-N-(4-(trifluoromethyl)phenyl)-acetamide] | 88% |  |
| O=C(Cc1cccc2nccn12)Nc1cnc(C(F)(F)F)nc1 [Example 47, 2-(imidazo[1,2-a]pyridin-5-yl)-N-(2-(trifluoromethyl)-pyrimidin-5-yl)acetamide] | 52% |  |

| Compound | inhibition at 10 µM [3] | also measured |
| --- | --- | --- |
| COc1ccc2nccn2c1CC(=O)Nc1ccc(C(F)(F)F)cc1 [Example 89, 2-(6-methoxyimidazo[1,2-a]pyridin-5-yl)-N-(4-(trifluoromethyl)phenyl)-acetamide] | 92% |  |
| O=C(Cc1cccc2nccn12)Nc1ccc(OC(F)(F)F)cc1 [Example 5, 2-(imidazo[1,2-a]pyridin-5-yl)-N-(4-(trifluoromethoxy)phenyl)acetamide] | 93% |  |
| O=C(Cc1cccc2nccn12)Nc1ccccc1 [Example 26, 2-(imidazo[1,2-a]pyridin-5-yl)-N-phenylacetamide] | 53% |  |
| O=C(Cc1cc(F)cc2nccn12)Nc1ccc(OC(F)(F)F)cc1 [Example 86, 2-(7-fluoroimidazo[1,2-a]pyridin-5-yl)-N-(4-(trifluoromethoxy)-phenyl)acetamide] | 93% |  |
| CCc1ccc(NC(=O)Cc2cccc3nccn23)cc1F [Example 11, N-(4-ethyl-3-fluorophenyl)-2-(imidazo[1,2-a]pyridin-5-yl)acetamide] | 94% |  |
| O=C(Cc1cccc2nccn12)Nc1ccc(CC(F)F)cc1 [Example 13, N-(4-(2,2-difluoroethyl)phenyl)-2-(imidazo[1,2-a]pyridin-5-yl)acetamide] | 88% |  |
| CC(C)c1ccc(NC(=O)Cc2cccc3nccn23)cc1 [Example 66, 2-(imidazo[1,2-a]pyridin-5-yl)-N-(4-isopropylphenyl)acetamide] | 92% |  |
| O=C(Cc1cccc2nccn12)Nc1ccc(C(F)F)cc1 [Example 69, N-(4-(difluoromethyl)phenyl)-2-(imidazo[1,2-a]pyridin-5-yl)acetamide] | 87% |  |
| C[C@@H]([C@@H](O)c1ccc(O)cc1)N1CCC(O)(c2ccccc2)CC1 [CP-101, 606] |  | treatment resistant-depression symptom [4]: significantly improves treatment resistant-depression symptom; number of occurrence and depth of cortical spreading depression [1]: suppress the number of occurrence and the depth of cortical spreading depression |
| COc1c(F)cc(NC(=O)Cc2cccc3nccn23)cc1F [Example 19, N-(3,5-difluoro-4-methoxyphenyl)-2-(imidazo[1,2-a]pyridin-5-yl)acetamide] | 91% |  |
| Cc1cnc2cccc(CC(=O)Nc3ccc(C(F)(F)F)cc3)n12 [Example 20, 2-(3-methylimidazo[1,2-a]pyridin-5-yl)-N-(4-(trifluoromethyl)phenyl)acetamide] | 74% |  |
| CNC1(c2ccccc2Cl)CCCCC1=O (stereo not shown) [ketamine] |  | depression symptom accompanying major depression and bipolar disorder (NMDA receptor [5]): improves depression symptom accompanying major depression and bipolar disorder rapidly and in a sustained manner |
| COc1ccc(NC(=O)Cc2cccc3nccn23)cn1 [Example 24, 2-(imidazo[1,2-a]pyridin-5-yl)-N-(6-methoxypyridin-3-yl)acetamide] | 62% |  |
| CC(C(O)c1ccc(O)cc1)N1CCC(Cc2ccccc2)CC1 (stereo not shown) [Ifenprodil] |  | pain sense threshold [6]: pain sense threshold increases |
| Cc1cccc(NC(=O)Cc2cccc3nccn23)c1 [Example 30, 2-(imidazo[1,2-a]pyridin-5-yl)-N-(3-methylphenyl)acetamide] | 50% |  |
| O=C(Cc1cccc2nccn12)Nc1ccc(Oc2ccccc2)cc1 [Example 34, 2-(imidazo[1,2-a]pyridin-5-yl)-N-(4-phenoxyphenyl)acetamide] | 71% |  |
